{"source": "patent US4016254A", "about": "“Pharmaceutical formulations” (Beecham Group Limited, priority 1972, dated 1977)", "type_in_all_cases": "physicochemical", "key": {"[1]": {"experiment": "Bulk densities, Examples 1-14"}, "[2]": {"experiment": "Potency, Examples 15-56 (determined in conventional manner)", "description": "The moisture contents of these powders were determined by the Karl Fischer method. The potency of the product was determined in conventional manner."}, "[3]": {"experiment": "Flow properties: angle of repose"}}, "data": [{"smiles": "CC1(C)S[C@@H]2[C@H](NC(=O)[C@H](N)c3ccccc3)C(=O)N2[C@H]1C(=O)O", "note": "[ampicillin trihydrate raw material, ampicillin trihydrate]", "values": [{"measurement": "Bulk Density", "setting": "[1]", "result": 0.67}, {"measurement": "Potency of ampicillin trihydrate raw materials", "setting": "[2]; raw material of Examples 15-29 and 41-48", "result": 83, "unit": "%"}, {"measurement": "Potency of ampicillin trihydrate raw materials", "setting": "[2]; raw material of Examples 30-40", "result": 84, "unit": "%"}, {"measurement": "Potency of ampicillin trihydrate raw materials", "setting": "[2]; raw material of Examples 49-56", "result": 86, "unit": "%"}, {"measurement": "Angle of repose of raw material", "setting": "[3]", "result": 64, "unit": "°"}]}]}
